# Data from patent US20250152647A1, “FORMULATIONS AND METHODS FOR SKIN CARE” (AMILYFE, LLC, priority 2022, published 2025).
# Experiment: Preliminary screens of amino acids
# Experimental: In addition to the amino acid combinations described above, several other combinations are tested that include, e.g., Trp and/or Arg to determine if inclusion of these amino acids confers additional dermatological benefits. […] At the outset, the following combinations of amino acids are tested: Ala, Gln, Gly, Ser (combo #1); Ala, Gln, Gly, Ser, Val, Ile (combo #2); Ala, Gln, Gly, Ser, Val; Ala, Gln, Gly, Ser, Ile; Ala, Gln, Gly, Ser, Ile, Val, Trp; Ala, Gln, Gly, Ser, Ile, Val, Arg; and Ala, Gln, Gly, Ser, Ile, Val, Trp, Arg.
row,SMILES,effect in preliminary screens
1,"N[C@@H](Cc1c[nH]c2ccccc12)C(=O)O [Trp, tryptophan]",positive effects
2,"N=C(N)NCCC[C@H](N)C(=O)O [Arg, arginine]",positive effects
